Results on 20 compounds are retold here after publication PMC6274279, “Novel Cholinesterase Inhibitors Based on O-Aromatic N,N-Disubstituted Carbamates and Thiocarbamates” (Molecules, 2016).

A word on the IC50: it is the concentration needed to halve the response being measured.

Like-named read-outs stand apart in the source and are kept apart here.

The target of data set [1] is T1, BChE from equine serum (Equus caballus, UniProt P81908).
T1 construct: butyrylcholinesterase was from equine serum; from tissue; host or cells: equine serum
T1 sequence (P81908 whole entry): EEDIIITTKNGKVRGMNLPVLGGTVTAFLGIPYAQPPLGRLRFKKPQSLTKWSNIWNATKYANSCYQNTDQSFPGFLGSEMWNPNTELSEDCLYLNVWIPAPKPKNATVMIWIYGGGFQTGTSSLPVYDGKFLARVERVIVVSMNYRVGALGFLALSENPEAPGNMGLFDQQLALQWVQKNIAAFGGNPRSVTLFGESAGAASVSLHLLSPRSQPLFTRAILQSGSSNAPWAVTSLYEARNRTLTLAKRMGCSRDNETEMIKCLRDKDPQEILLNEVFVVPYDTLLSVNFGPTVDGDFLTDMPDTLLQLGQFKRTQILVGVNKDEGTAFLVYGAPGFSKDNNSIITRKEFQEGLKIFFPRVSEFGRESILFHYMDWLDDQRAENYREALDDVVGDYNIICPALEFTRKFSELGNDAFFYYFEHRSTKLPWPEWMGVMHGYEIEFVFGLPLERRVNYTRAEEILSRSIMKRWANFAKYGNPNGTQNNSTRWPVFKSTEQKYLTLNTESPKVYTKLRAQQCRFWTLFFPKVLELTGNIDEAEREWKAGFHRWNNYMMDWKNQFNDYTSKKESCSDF
As to the kind of experiment: Butyrylcholinesterase inhibition, spectrophotometric Ellman's method. In kind it is biochemical. The note with it: for Selectivity to BChE: IC50 for AChE/IC50 for BChE; for Selectivity Index for BChE: ratio of cellular toxicity (HepG2 IC50) and IC50 for BChE. As to the method:
(§1) The IC50 values were determined using the spectrophotometric Ellman’s method, which is a simple and rapid method to determine the SH and -S-S- groups content in proteins. This method is widely used for the evaluation of cholinesterase activity and screening the efficiency of ChE inhibitors. Cholinesterase activity is measured indirectly by quantifying the concentration of the 5-mercapto-2-nitrobenzoic acid ion formed in the reaction between the thiol reagent 5,5′-dithiobis(2-nitrobenzoic acid) and thiocholine, a product of substrate hydrolysis (i.e., acetylthiocholine, ATCh) by cholinesterases. Ellman’s method was modified slightly according to Zdrazilova et al..
(§2) The inhibitory potency of fifteen carbamates and five thiocarbamates was evaluated for AChE from electric eel and BChE from equine serum.
(§3) The IC50 values were determined using the spectrophotometric Ellman’s method. All of the tested compounds were dissolved in 0.01 M dimethyl sulphoxide and then diluted in demineralised water to 0.001 M and 0.0001 M. Ellman’s method was modified slightly according to Zdrazilova et al.. Acetylcholinesterase was obtained from electric eel (Electrophorus electricus L.) and butyrylcholinesterase was from equine serum.
(In general: DTNB colorimetry detects thiols as they appear.)

For data set [2], the target named is T2, AChE from electric eel (Electrophorus electricus, UniProt O42275).
T2 construct: Acetylcholinesterase was obtained from electric eel (Electrophorus electricus L.); from tissue
T2 sequence (O42275 24-633): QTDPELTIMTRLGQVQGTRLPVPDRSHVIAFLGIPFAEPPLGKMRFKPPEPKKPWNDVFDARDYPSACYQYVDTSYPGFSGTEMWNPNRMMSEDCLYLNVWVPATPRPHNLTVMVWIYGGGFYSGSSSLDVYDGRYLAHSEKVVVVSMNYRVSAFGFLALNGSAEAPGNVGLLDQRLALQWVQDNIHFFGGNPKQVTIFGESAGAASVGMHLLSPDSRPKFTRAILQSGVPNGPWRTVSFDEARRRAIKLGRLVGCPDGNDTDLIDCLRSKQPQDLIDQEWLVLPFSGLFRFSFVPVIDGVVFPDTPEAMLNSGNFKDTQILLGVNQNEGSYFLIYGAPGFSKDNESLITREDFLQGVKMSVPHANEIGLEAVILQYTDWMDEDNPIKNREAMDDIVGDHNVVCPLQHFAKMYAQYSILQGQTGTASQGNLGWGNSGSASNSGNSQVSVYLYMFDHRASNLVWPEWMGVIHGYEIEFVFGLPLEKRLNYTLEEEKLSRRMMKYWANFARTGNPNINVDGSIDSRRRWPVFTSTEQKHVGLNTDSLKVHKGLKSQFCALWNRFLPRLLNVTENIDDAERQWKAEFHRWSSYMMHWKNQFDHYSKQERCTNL
The data set can be described thus: Acetylcholinesterase inhibition, spectrophotometric Ellman's method. The conditions noted are these: for Selectivity Index for AChE: ratio of cellular toxicity (HepG2 IC50) and IC50 for AChE. In kind it is biochemical, electric eel (Electrophorus electricus L.). As to the method: as §1, §2, §3

Data set [3] has as its system HepG2 cells. The conditions noted are these: cited from earlier work.
Setting [4] is: cytotoxicity determined previously, read-out: IC50 for HepG2.
Setting [5] is: approximate value, read-out: IC50 values (cytotoxicity, HepG2).

For `CN(C(=O)Oc1ccc(Cl)cc1C(=O)Nc1ccc(Cl)cc1)c1ccccc1` [1c], in data set [1], the midpoint of inhibition, the IC50, lay at 4.2 ± 0.18 µM; the “Selectivity to BChE” value is reported as 17.8; the “Selectivity Index for BChE” value is recorded as 68.8. Moreover, in data set [2], the IC50 was 74.8 ± 2.95 µM. The IC50 in data set [3] (setting [4]) is 289 µM.

Turning to `CN(C)C(=O)Oc1ccc(Cl)cc1C(=O)Nc1ccc(C(F)(F)F)cc1` [4a, 4-chloro-2-{[4-(trifluoro-methyl)phenyl]carbamoyl}phenyl dimethylcarbamate], the IC50 in data set [1] was 28.1 ± 0.86 µM; in data set [2], 49 ± 0.54 µM; in data set [3] (setting [5]), around 6000 µM; in data set [3] (setting [4]) it was 6510 µM. For the same compound, the “Selectivity to BChE” value in data set [1] is 1.7.

Regarding `CN(C)C(=S)Oc1ccccc1C(=O)Nc1ccccc1` [5b], in data set [1], the IC50 was found to be 26.6 ± 2.78 µM and the “Selectivity to BChE” value is reported as 2.3. This compound yielded an IC50 in data set [2] of 61.9 ± 6.56 µM.

With `CN(C)C(=S)Oc1ccc(Cl)cc1C(=O)Nc1ccc(F)cc1` [3b, O-{4-chloro-2-[(4-fluorophenyl)carbamoyl]phenyl} dimethylcarbamothioate], the values for the IC50 in data set [1] and in data set [2] were 91.4 ± 5.45 µM and 89.7 ± 4.68 µM, respectively. Moreover, the “Selectivity to BChE” value in data set [1] is listed as 1.0.

As to `CN(C(=O)Oc1ccc(Cl)cc1C(=O)Nc1ccc(C(F)(F)F)cc1)c1ccccc1` [4c], the IC50 was 1.97 ± 0.02 µM in data set [1], 49.9 ± 2.76 µM in data set [2] and above 100 µM in data set [3] (setting [4]). In addition, in data set [1], the “Selectivity Index for BChE” value is “˃50.8”.

Consider `O=C(Nc1ccc(Cl)cc1)c1cc(Cl)ccc1OC(=O)N(c1ccccc1)c1ccccc1` [1d], for which the values for the IC50 in data set [1] and in data set [2] were 106 ± 3.64 µM and 54.8 ± 1.43 µM, respectively.

For `CN(C)C(=O)Oc1ccc(Cl)cc1C(=O)Nc1ccc(Br)cc1` [2a], in data set [1], the IC50 turned out to be 54.21 ± 0.3 µM and the “Selectivity to BChE” value was found to be 1.2. This compound also gave an IC50 in data set [2] of 62.4 ± 1.36 µM.

Regarding `CN(C)C(=S)Oc1ccc(Cl)cc1C(=O)Nc1ccc(Br)cc1` [2b], in data set [1], the IC50 was 54.64 ± 0.42 µM and the “Selectivity to BChE” value is 1.1. The IC50 in data set [2] is 59.1 ± 2.13 µM.

`CN(C)C(=O)Oc1ccc(Cl)cc1C(=O)Nc1ccc(Cl)cc1` [1a]: the IC50 in data set [1] came out at 88.4 ± 1.27 µM; in data set [2], 72.9 ± 1.06 µM. For the same compound, the “Selectivity to BChE” value in data set [1] is listed as 0.8.

As for `CN(C(=O)Oc1ccccc1C(=O)Nc1ccccc1)c1ccccc1` [5c], the IC50 in data set [1] is 11.4 ± 0.48 µM; in data set [2], 55 ± 2.46 µM. The “Selectivity to BChE” value in data set [1] was 4.8.

As for `O=C(Nc1ccccc1)c1ccccc1OC(=O)N(c1ccccc1)c1ccccc1` [5d, 2-(phenylcarbamoyl)phenyl diphenylcarbamate], the concentration for half-maximal inhibition (IC50) in data set [1] is 1.6 ± 0.01 µM; in data set [2], 53.8 ± 4.26 µM; in data set [3] (setting [4]), 211 µM. Moreover, the “Selectivity Index for BChE” value in data set [1] is listed as 131.9.

With `CN(C)C(=O)Oc1ccc(Cl)cc1C(=O)Nc1ccc(F)cc1` [3a, 4-chloro-2-[(4-fluorophenyl)carbamoyl]phenyl dimethylcarbamate], the IC50 came to 311 ± 4.5 µM in data set [1] and 76.2 ± 2.87 µM in data set [2].

Turning to `O=C(Nc1ccc(C(F)(F)F)cc1)c1cc(Cl)ccc1OC(=O)N(c1ccccc1)c1ccccc1` [4d], in data set [1], the IC50 was determined as 49 ± 0.17 µM and the “Selectivity to BChE” value came to 1.0. In data set [2], the IC50 stood at 47.4 ± 2.78 µM.

With `CN(C(=O)Oc1ccc(Cl)cc1C(=O)Nc1ccc(F)cc1)c1ccccc1` [3c], in data set [1], inhibition was half-maximal at 7.34 ± 0.14 µM (IC50), the “Selectivity to BChE” value was 8.5 and the “Selectivity Index for BChE” value is reported as 69.8. In data set [2], the midpoint of inhibition, the IC50, lay at 62.5 ± 5.03 µM and the “Selectivity Index for AChE” value came to 8.2. Further, the IC50 in data set [3] (setting [4]) was 512 µM.

Regarding `O=C(Nc1ccc(Br)cc1)c1cc(Cl)ccc1OC(=O)N(c1ccccc1)c1ccccc1` [2d], the IC50 in data set [1] came out at 145 ± 29 µM; in data set [2], 63.3 ± 0.95 µM.

For `CN(C)C(=O)Oc1ccccc1C(=O)Nc1ccccc1` [5a], the IC50 in data set [1] is 83.6 ± 6.84 µM; in data set [2], 57.7 ± 1.6 µM; in data set [3] (setting [5]), around 6000 µM; in data set [3] (setting [4]), 5990 µM. Further, in data set [1], the “Selectivity to BChE” value is on record as 0.7. Also, the “Selectivity Index for BChE” value in data set [1] is 71.6.

On to `O=C(Nc1ccc(F)cc1)c1cc(Cl)ccc1OC(=O)N(c1ccccc1)c1ccccc1` [3d], for which, in data set [1], the IC50 came to 15.63 ± 0.11 µM and the “Selectivity to BChE” value is reported as 3.1. This compound also had an IC50 in data set [2] of 49 ± 3.88 µM.

In the case of `CN(C)C(=S)Oc1ccc(Cl)cc1C(=O)Nc1ccc(Cl)cc1` [1b, O-{4-Chloro-2-[(4-chlorophenyl)carbamoyl]phenyl} dimethylcarbamothioate], in data set [1], the IC50 came out at 51.4 ± 1.65 µM, the “Selectivity to BChE” value stood at 0.8 and the “Selectivity Index for BChE” value is given as 1.6. Moreover, in data set [2], the half-maximal inhibitory concentration (IC50) came to 39 ± 1.11 µM and the “Selectivity Index for AChE” value is 2.1. In addition, the IC50 in data set [3] (setting [4]) is 83.5 µM.

For the compound `CN(C(=O)Oc1ccc(Cl)cc1C(=O)Nc1ccc(Br)cc1)c1ccccc1` [2c, 2-[(4-bromophenyl)carbamoyl]-4-chlorophenyl methyl(phenyl)carbamate], in data set [1], the IC50 was determined as 4.3 ± 0.51 µM and the “Selectivity to BChE” value stood at 19.0. Moreover, in data set [2], inhibition was half-maximal at 81.6 ± 2.92 µM (IC50) and the “Selectivity Index for AChE” value stood at 11.6. In data set [3] (setting [4]), the IC50 is 945 µM.

As for `CN(C)C(=S)Oc1ccc(Cl)cc1C(=O)Nc1ccc(C(F)(F)F)cc1` [4b], in data set [1], half-maximal inhibition (IC50) required 36.22 ± 0.28 µM, the “Selectivity to BChE” value worked out at 1.2 and the “Selectivity Index for BChE” value stood at 1.9. The compound further gave an IC50 in data set [2] of 42 ± 0.55 µM. For the same compound, in data set [3] (setting [4]), the IC50 is 67.3 µM.
